# In paper PMC4965013, “Open Source Drug Discovery with the Malaria Box Compound Collection for Neglected Diseases and Beyond” (PLoS Pathogens, 2016):
# Tests used:
# [1] = system: P. falciparum 3D7 trophozoites; experiment: Metabolomic fingerprint profiling LC-MS; format: cell-based, Plasmodium falciparum; design: UDP-D-glucose / ADP-D-glucose: unit not given here; conditions: for Acetyllysine / N-acetyl-L-ornithine / N-carbamoyl-L-aspartate / NADPH / dAMP / dCMP / dTDP / dTMP / dTTP / dihydroorotate / orotate / DLH / DLS/SDL/SID / PD / PEE / PVNF / 3-phosphoglycerate / ADP-D-glucose / ATP / CDP / D-sedoheptulose-1/7-phosphate / FAD / GMP / NAD+ / NADP+ / Octoluse Bisphosphate / Pyroglutamic acid / UDP-D-glucose / UDP-D-glucuronate / UDP-N-acetyl-glucosamine / UDP / UMP / UTP / a-ketoglutarate / citrate/isocitrate / cytidine / dATP / dGMP/AMP / fumarate / glucose-1/6-phosphate / glycerate / guanine / guanosine / hypoxanthine / indole / inosine / nicotinate / ornithine / phosphoenolpyruvate / pyruvate / ribose-phosphate / sarcosine/alanine / sn-glycerol-3-phosphate / succinate/methylmalonic acid / uridine / xanthosine: S2 Table Metabolomics; for Acetyllysine: metabolite Acetyllysine; for N-acetyl-L-ornithine: metabolite N-acetyl-L-ornithine; for N-carbamoyl-L-aspartate: metabolite N-carbamoyl-L-aspartate; for NADPH: metabolite NADPH; for dAMP: metabolite dAMP; for dCMP: metabolite dCMP; for dTDP: metabolite dTDP; for dTMP: metabolite dTMP; for dTTP: metabolite dTTP; for dihydroorotate: metabolite dihydroorotate; for orotate: metabolite orotate; for DLH: peptide DLH; for DLS/SDL/SID: peptide DLS/SDL/SID; for PD: peptide PD; for PEE: peptide PEE; for PVNF: peptide PVNF; for 3-phosphoglycerate: metabolite 3-phosphoglycerate; for ADP-D-glucose: metabolite ADP-D-glucose; for ATP: metabolite ATP; for CDP: metabolite CDP; for CDP / D-sedoheptulose-1/7-phosphate / GMP / Octoluse Bisphosphate / UDP / UMP / UTP / citrate/isocitrate / dGMP/AMP / fumarate / glucose-1/6-phosphate / glycerate / guanine / guanosine / inosine / pyruvate / sarcosine/alanine / succinate/methylmalonic acid / uridine / xanthosine: change in metabolite level after compound treatment; for D-sedoheptulose-1/7-phosphate: metabolite D-sedoheptulose-1/7-phosphate; for FAD: metabolite FAD; for GMP: metabolite GMP; for NAD+: metabolite NAD+; for NADP+: metabolite NADP+; for Octoluse Bisphosphate: metabolite Octoluse Bisphosphate; for Pyroglutamic acid: metabolite Pyroglutamic acid; for UDP-D-glucose: metabolite UDP-D-glucose; for UDP-D-glucuronate: metabolite UDP-D-glucuronate; for UDP-N-acetyl-glucosamine: metabolite UDP-N-acetyl-glucosamine; for UDP: metabolite UDP; for UMP: metabolite UMP; for UTP: metabolite UTP; for a-ketoglutarate: metabolite a-ketoglutarate; for citrate/isocitrate: metabolite citrate/isocitrate; for cytidine: metabolite cytidine; for dATP: metabolite dATP; for dGMP/AMP: metabolite dGMP/AMP; for fumarate: metabolite fumarate; for glucose-1/6-phosphate: metabolite glucose-1/6-phosphate; for glycerate: metabolite glycerate; for guanine: metabolite guanine; for guanosine: metabolite guanosine; for hypoxanthine: metabolite hypoxanthine; for indole: metabolite indole; for inosine: metabolite inosine; for 2_3-Diphosphoglyceric acid / 4-phosphopantothenate / 6-phospho-D-gluconate / FMN / IMP / Pyrophosphate / Sedoheptoluse bisphosphate / cyclic-AMP / glutathione disulfide / lactate / myo-inositol: metabolite level change after treatment; for nicotinate: metabolite nicotinate; for ornithine: metabolite ornithine; for phosphoenolpyruvate: metabolite phosphoenolpyruvate; for pyruvate: metabolite pyruvate; for ribose-phosphate: metabolite ribose-phosphate; for sarcosine/alanine: metabolite sarcosine/alanine; for sn-glycerol-3-phosphate: metabolite sn-glycerol-3-phosphate; for succinate/methylmalonic acid: metabolite succinate/methylmalonic acid; for uridine: metabolite uridine; for xanthosine: metabolite xanthosine
# P. falciparum = experiment: EC50 listed in S2 Table Metabolomics (used to set the concentration tested); format: cell-based; conditions: Plasmodium falciparum; EC50 used for Factor_XEC50 in metabolomics; read-out: EC50_nM
smiles,measurement,setting,value
Cc1ccc(N2C(=O)C3C(C2=O)C2(c4ccccc4)C(=O)C3(c3ccccc3)C(c3ccccc3)=C2c2ccccc2)cc1 (stereo not shown) [MMV666062],Acetyllysine,[1],-0.1709
same,N-acetyl-L-ornithine,[1],-0.324
same,N-carbamoyl-L-aspartate,[1],-0.2951
same,NADPH,[1],-0.2149
same,dAMP,[1],-0.4875
same,dCMP,[1],-0.7263
same,dTDP,[1],-0.1985
same,dTMP,[1],-0.6991
same,dTTP,[1],-0.2344
same,dihydroorotate,[1],-0.213
same,orotate,[1],-0.7199
same,DLH,[1],-0.006238
same,DLS/SDL/SID,[1],-0.3315
same,PD,[1],-0.3487
same,PEE,[1],-0.01834
same,PVNF,[1],-0.09341
same,3-phosphoglycerate,[1],-1.0087
same,ADP-D-glucose,[1],-0.2764
same,ATP,[1],-0.1502
same,CDP,[1],-0.3978
same,D-sedoheptulose-1/7-phosphate,[1],-0.4359
same,FAD,[1],-0.2118
same,GMP,[1],-0.3584
same,NAD+,[1],-0.2488
same,NADP+,[1],-0.1786
same,Octoluse Bisphosphate,[1],-0.3963
same,Pyroglutamic acid,[1],-0.08618
same,UDP-D-glucose,[1],-0.2942
same,UDP-D-glucuronate,[1],-0.1481
same,UDP-N-acetyl-glucosamine,[1],-0.3667
same,UDP,[1],-0.4806
same,UMP,[1],-0.3962
same,UTP,[1],-0.1426
same,a-ketoglutarate,[1],-0.4814
same,citrate/isocitrate,[1],-0.07191
same,cytidine,[1],-0.4412
same,dATP,[1],-0.199
same,dGMP/AMP,[1],-0.7601
same,fumarate,[1],-0.1898
same,glucose-1/6-phosphate,[1],0.1468
same,glycerate,[1],-0.3247
same,guanine,[1],-0.8033
same,guanosine,[1],-0.4206
same,hypoxanthine,[1],-0.5014
same,indole,[1],-0.4173
same,inosine,[1],-0.516
same,2_3-Diphosphoglyceric acid,[1],-0.1968
same,4-phosphopantothenate,[1],-0.3798
same,6-phospho-D-gluconate,[1],-0.105
same,FMN,[1],-0.4755
same,IMP,[1],-0.5384
same,Pyrophosphate,[1],-0.0001746
same,Sedoheptoluse bisphosphate,[1],-0.4955
same,cyclic-AMP,[1],-0.438
same,glutathione disulfide,[1],-0.4046
same,lactate,[1],-0.3401
same,myo-inositol,[1],0.6705
same,nicotinate,[1],-0.6806
same,ornithine,[1],-0.4373
same,phosphoenolpyruvate,[1],-0.3807
same,pyruvate,[1],-0.5819
same,ribose-phosphate,[1],-0.7488
same,sarcosine/alanine,[1],-0.5636
same,sn-glycerol-3-phosphate,[1],-0.1452
same,succinate/methylmalonic acid,[1],-0.2494
same,uridine,[1],-0.8945
same,xanthosine,[1],-0.2816
same,EC50,P. falciparum,282 nM
COc1ccc(C2=C(c3ccc(OC)cc3)C3(c4ccccc4)C(=O)C2(c2ccccc2)C2C(=O)N(c4ccc(C)cc4)C(=O)C23)cc1 (stereo not shown) [MMV666101],Acetyllysine,[1],-0.1129
same,N-acetyl-L-ornithine,[1],0.1609
same,N-carbamoyl-L-aspartate,[1],-0.002224
same,NADPH,[1],-0.9507
same,dAMP,[1],-0.2629
same,dCMP,[1],0.3804
same,dTDP,[1],0.03996
same,dTMP,[1],0.002701
same,dTTP,[1],0.2425
same,dihydroorotate,[1],0.3476
same,orotate,[1],-0.884
same,DLH,[1],0.3443
same,DLS/SDL/SID,[1],0.3548
same,PD,[1],0.01018
same,PEE,[1],0.2697
same,PVNF,[1],0.3279
same,3-phosphoglycerate,[1],-0.07386
same,ADP-D-glucose,[1],0.1248
same,ATP,[1],0.5165
same,CDP,[1],0.04064
same,D-sedoheptulose-1/7-phosphate,[1],0.08624
same,FAD,[1],0.1013
same,GMP,[1],0.6118
same,NAD+,[1],-0.01164
same,NADP+,[1],0.3941
same,Octoluse Bisphosphate,[1],0.2807
same,Pyroglutamic acid,[1],0.2222
same,UDP-D-glucose,[1],-0.02174
same,UDP-D-glucuronate,[1],0.06413
same,UDP-N-acetyl-glucosamine,[1],0.01073
same,UDP,[1],0.07085
same,UMP,[1],0.1142
same,UTP,[1],0.03866
same,a-ketoglutarate,[1],-0.8357
same,citrate/isocitrate,[1],-1.04
same,cytidine,[1],0.3993
same,dATP,[1],-0.09007
same,dGMP/AMP,[1],-0.1266
same,fumarate,[1],-0.05622
same,glucose-1/6-phosphate,[1],0.03368
same,glycerate,[1],-0.6868
same,guanine,[1],-0.559
same,guanosine,[1],-0.9392
same,hypoxanthine,[1],-0.6138
same,indole,[1],-0.8533
same,inosine,[1],-0.8697
same,2_3-Diphosphoglyceric acid,[1],0.4338
same,4-phosphopantothenate,[1],-0.011
same,6-phospho-D-gluconate,[1],0.058
same,FMN,[1],0.02064
same,IMP,[1],-0.3616
same,Pyrophosphate,[1],0.3662
same,Sedoheptoluse bisphosphate,[1],0.08206
same,cyclic-AMP,[1],-0.009901
same,glutathione disulfide,[1],0.01065
same,lactate,[1],-0.9335
same,myo-inositol,[1],-1.462
same,nicotinate,[1],-1.016
same,ornithine,[1],-0.4187
same,phosphoenolpyruvate,[1],0.02347
same,pyruvate,[1],-0.8543
same,ribose-phosphate,[1],-0.007312
same,sarcosine/alanine,[1],0.06192
same,sn-glycerol-3-phosphate,[1],-0.02979
same,succinate/methylmalonic acid,[1],-0.01842
same,uridine,[1],-0.9813
same,xanthosine,[1],-0.2752
same,EC50,P. falciparum,148 nM
